Patent US20250179078A1, “INHIBITORS OF NLRP3” (PTC THERAPEUTICS, INC., priority 2022, published 2025)

Each compound was assayed against T1, NLRP3 (Homo sapiens, UniProt Q96P20) (assay: IL-1β Secretion Assay (NLRP3-dependent IL1β secretion in THP1 cells)). Details: PMA-differentiated THP-1 cells; compounds incubated 20 h; 2.5 μM Nigericin 3 h; HTRF IL-1β readout; read-out: IC50 IL-1β Inhibition.
T1 construct: host or cells: THP-1 cells differentiated with PMA
T1 sequence (Q96P20 whole entry): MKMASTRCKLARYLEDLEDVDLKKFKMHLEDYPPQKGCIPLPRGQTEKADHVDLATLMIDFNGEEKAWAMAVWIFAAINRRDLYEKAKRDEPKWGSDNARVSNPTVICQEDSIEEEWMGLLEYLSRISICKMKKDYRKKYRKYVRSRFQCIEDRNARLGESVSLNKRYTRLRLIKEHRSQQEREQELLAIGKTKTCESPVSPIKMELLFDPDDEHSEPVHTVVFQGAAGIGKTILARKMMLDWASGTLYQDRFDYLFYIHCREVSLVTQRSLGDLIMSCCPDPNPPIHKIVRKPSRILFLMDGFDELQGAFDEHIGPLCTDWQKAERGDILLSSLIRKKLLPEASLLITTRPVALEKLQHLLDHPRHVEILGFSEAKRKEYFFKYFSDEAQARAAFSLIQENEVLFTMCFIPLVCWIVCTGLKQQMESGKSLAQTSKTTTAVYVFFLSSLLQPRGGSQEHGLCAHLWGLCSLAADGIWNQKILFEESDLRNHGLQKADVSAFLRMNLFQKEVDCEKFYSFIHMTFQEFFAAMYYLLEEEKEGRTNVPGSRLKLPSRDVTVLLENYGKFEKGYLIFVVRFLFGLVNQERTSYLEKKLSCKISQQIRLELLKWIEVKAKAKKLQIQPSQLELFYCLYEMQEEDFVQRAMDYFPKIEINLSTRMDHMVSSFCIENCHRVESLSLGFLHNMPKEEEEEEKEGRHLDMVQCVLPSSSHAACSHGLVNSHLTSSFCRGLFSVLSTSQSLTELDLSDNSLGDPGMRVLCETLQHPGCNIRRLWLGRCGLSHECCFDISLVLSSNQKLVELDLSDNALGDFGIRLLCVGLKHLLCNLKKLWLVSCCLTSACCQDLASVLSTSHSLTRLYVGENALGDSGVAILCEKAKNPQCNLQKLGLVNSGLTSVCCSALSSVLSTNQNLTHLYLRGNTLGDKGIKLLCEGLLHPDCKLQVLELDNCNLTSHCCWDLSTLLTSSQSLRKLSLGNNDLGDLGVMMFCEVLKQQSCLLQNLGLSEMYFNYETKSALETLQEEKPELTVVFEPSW
Format: cell-based
Procedure, shortened: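 IL-1β in conditioned media, measured by HTRF after 3 h 2.5 μM nigericin stimulation, gave % inhibition fitted logistically for IC50. Before that, PMA-differentiated (100 ng/mL, 24 h) THP-1 cells were preincubated 20 h with 7 compound concentrations (3-fold serial, DMSO 1:200).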
Work on COc1ccc(-c2nnc(NC3CCNC3=O)n3cc(C)cc23)c(OC(F)(F)F)c1 (stereo not drawn) [Compound 162, 3-({1-[4-methoxy-2-(trifluoromethoxy)phenyl]-7-methylpyrrolo[1,2-d][1,2,4]triazin-4-yl}amino)pyrrolidin-2-one] yielded an IC50 of 1 to 10 nM. Compound COc1ccc(-c2nnc(N[C@@H]3CCCC[C@H]3O)n3cc(C)cc23)c(OC(F)(F)F)c1 [Compound 163, (1R,2R)-2-({1-[4-methoxy-2-(trifluoromethoxy)phenyl]-7-methylpyrrolo[1,2-d][1,2,4]triazin-4-yl}amino)cyclohexan-1-ol] has an IC50 of 10 to 100 nM. For Cc1cc2c(-c3ccc(C(F)(F)F)cc3C(F)(F)F)nnc(N[C@@H]3CCOC[C@H]3O)n2c1 [Compound 164, (3S,4R)-4-({1-[2,4-bis(trifluoromethyl)phenyl]-7-methylpyrrolo[1,2-d][1,2,4]triazin-4-yl}amino)oxan-3-ol], the IC50 was 100 to 300 nM. In the case of COc1ccc(-c2nnc(N[C@@H]3CCOC[C@H]3O)n3cc(C)cc23)c(OC(F)(F)F)c1 [Compound 165, (3S,4R)-4-({1-[4-methoxy-2-(trifluoromethoxy)phenyl]-7-methylpyrrolo[1,2-d][1,2,4]triazin-4-yl}amino)oxan-3-ol], the IC50 is reported as 1 to 10 nM. CCN1CCC[C@@H](Nc2nnc(-c3ccc(OC)cc3OC(F)F)c3cccn23)C1 [Compound 166, 1-[2-(difluoromethoxy)-4-methoxyphenyl]-N-[(3R)-1-ethylpiperidin-3-yl]pyrrolo[1,2-d][1,2,4]triazin-4-amine] showed an IC50 of less than 1 nM. COc1ccc(-c2nnc(N[C@@H]3CCOC[C@H]3O)n3cccc23)c(OC(F)F)c1 [Compound 167, (3S,4R)-4-({1-[2-(difluoromethoxy)-4-methoxyphenyl]pyrrolo[1,2-d][1,2,4]triazin-4-yl}amino)oxan-3-ol] was tested, and the IC50 was 10 to 100 nM. O[C@@H]1CCCC[C@H]1Nc1nnc(-c2ccc(OC(F)F)cc2OC(F)(F)F)c2cccn12 [Compound 168, (1R,2R)-2-({1-[4-(difluoromethoxy)-2-(trifluoromethoxy)phenyl]pyrrolo[1,2-d][1,2,4]triazin-4-yl}amino)cyclohexan-1-ol] showed an IC50 of 1 to 10 nM. CCN1CCC[C@@H](Nc2nnc(-c3ccc(C(F)(F)F)cc3OCF)c3cccn23)C1 [Compound 169, N-[(3R)-1-ethylpiperidin-3-yl]-1-[2-(fluoromethoxy)-4-(trifluoromethyl)phenyl]pyrrolo[1,2-d][1,2,4]triazin-4-amine] was tested, and the IC50 was less than 1 nM. CN1CC[C@@H](O)[C@@H](Nc2nnc(-c3ccc(OC(F)F)cc3OC(F)(F)F)c3cccn23)C1 [Compound 170, (3S,4R)-3-({1-[4-(difluoromethoxy)-2-(trifluoromethoxy)phenyl]pyrrolo[1,2-d][1,2,4]triazin-4-yl}amino)-1-methylpiperidin-4-ol] showed an IC50 of less than 1 nM. CCN1CC[C@@H](O)[C@@H](Nc2nnc(-c3ccc(OC(F)F)cc3OC(F)(F)F)c3cccn23)C1 [Compound 171, (3S,4R)-3-({1-[4-(difluoromethoxy)-2-(trifluoromethoxy)phenyl]pyrrolo[1,2-d][1,2,4]triazin-4-yl}amino)-1-ethylpiperidin-4-ol] gave an IC50 of less than 1 nM. In the case of CC(Nc1nnc(-c2ccc(OC(F)F)cc2OC(F)(F)F)c2cccn12)c1cccc(O)c1 (stereo not drawn) [Compound 172, 3-[1-({1-[4-(difluoromethoxy)-2-(trifluoromethoxy)phenyl]pyrrolo[1,2-d][1,2,4]triazin-4-yl}amino)ethyl]phenol], the IC50 is reported as less than 1 nM. OCCN1CCC[C@@H](Nc2nnc(-c3ccc(C(F)(F)F)cc3OCF)c3cccn23)C1 [Compound 173, 2-[(3R)-3-({1-[2-(fluoromethoxy)-4-(trifluoromethyl)phenyl]pyrrolo[1,2-d][1,2,4]triazin-4-yl}amino)piperidin-1-yl]ethan-1-ol] showed an IC50 of less than 1 nM. Compound COc1ccc(-c2nnc(NC3CCNC3=O)n3cccc23)c(OC(F)F)c1 (stereo not drawn) [Compound 174, 3-({1-[2-(difluoromethoxy)-4-methoxyphenyl]pyrrolo[1,2-d][1,2,4]triazin-4-yl}amino)pyrrolidin-2-one] has an IC50 of 10 to 100 nM. CCN1CC[C@@H](O)[C@@H](Nc2nnc(-c3ccc(OC)cc3OC(F)F)c3cccn23)C1 [Compound 175, (3S,4R)-3-({1-[2-(difluoromethoxy)-4-methoxyphenyl]pyrrolo[1,2-d][1,2,4]triazin-4-yl}amino)-1-ethylpiperidin-4-ol] was tested, and the IC50 was less than 1 nM. In the case of COc1ccc(-c2nnc(N[C@H]3CCC[C@@H](CO)C3)n3cccc23)c(OC(F)F)c1 [Compound 176, [(1R,3S)-3-({1-[2-(difluoromethoxy)-4-methoxyphenyl]pyrrolo[1,2-d][1,2,4]triazin-4-yl}amino)cyclohexyl]methanol], the IC50 is reported as 10 to 100 nM. With COc1ccc(-c2nnc(N[C@@H]3CCCC[C@H]3O)n3cccc23)c(OC(F)F)c1 [Compound 177, (1R,2R)-2-({1-[2-(difluoromethoxy)-4-methoxyphenyl]pyrrolo[1,2-d][1,2,4]triazin-4-yl}amino)cyclohexan-1-ol] the IC50 was 10 to 100 nM. CCN1CCC[C@@H](Nc2nnc(-c3ccc(C(F)(F)F)cc3OC3CC3)c3cccn23)C1 [Compound 178, 1-[2-(cyclopropyloxy)-4-(trifluoromethyl)phenyl]-N-[(3R)-1-ethylpiperidin-3-yl]pyrrolo[1,2-d][1,2,4]triazin-4-amine] showed an IC50 of 1 to 10 nM. OCCN1CCC[C@@H](Nc2nnc(-c3ccc(C(F)(F)F)cc3OC3CC3)c3cccn23)C1 [Compound 179, 2-[(3R)-3-({1-[2-(cyclopropyloxy)-4-(trifluoromethyl)phenyl]pyrrolo[1,2-d][1,2,4]triazin-4-yl}amino)piperidin-1-yl]ethan-1-ol] showed an IC50 of 10 to 100 nM. In the case of CCN1CCC[C@@H](Nc2nnc(-c3ccc(OC)cc3OC3CC3)c3cccn23)C1 [Compound 182, 1-[2-(cyclopropyloxy)-4-methoxyphenyl]-N-[(3R)-1-ethylpiperidin-3-yl]pyrrolo[1,2-d][1,2,4]triazin-4-amine], the IC50 is reported as 1 to 10 nM. With Cc1ccc(-c2nnc(N[C@H]3C[C@@H](CO)C3)n3cncc23)c(OC(F)F)c1 [Compound 183, [(1s,3s)-3-({1-[2-(difluoromethoxy)-4-methylphenyl]imidazo[1,5-d][1,2,4]triazin-4-yl}amino)cyclobutyl]methanol] the IC50 was 10 to 100 nM. Cc1ccc(-c2nnc(N[C@@H]3CCCN(CCO)C3)n3cncc23)c(OC(F)F)c1 [Compound 184, 2-[(3R)-3-({1-[2-(difluoromethoxy)-4-methylphenyl]imidazo[1,5-d][1,2,4]triazin-4-yl}amino)piperidin-1-yl]ethan-1-ol] showed an IC50 of 1 to 10 nM. In the case of OCCN1CCC[C@@H](Nc2nnc(-c3ccc(C4CC4)cc3OC(F)F)c3cncn23)C1 [Compound 185, 2-[(3R)-3-({1-[4-cyclopropyl-2-(difluoromethoxy)phenyl]imidazo[1,5-d][1,2,4]triazin-4-yl}amino)piperidin-1-yl]ethan-1-ol], the IC50 is reported as 1 to 10 nM. OCCN1CCC[C@@H](Nc2nnc(-c3ccc(C(F)(F)F)cc3OC(F)F)c3cncn23)C1 [Compound 186, 2-[(3R)-3-({1-[2-(difluoromethoxy)-4-(trifluoromethyl)phenyl]imidazo[1,5-d][1,2,4]triazin-4-yl}amino)piperidin-1-yl]ethan-1-ol] showed an IC50 of less than 1 nM. With C[C@]1(O)C[C@@H](Nc2nnc(-c3ccc(C(F)(F)F)cc3OC(F)F)c3cncn23)C1 [Compound 187, (1s,3s)-3-({1-[2-(difluoromethoxy)-4-(trifluoromethyl)phenyl]imidazo[1,5-d][1,2,4]triazin-4-yl}amino)-1-methylcyclobutan-1-ol] the IC50 was 1 to 10 nM.
